Assay [1] concerns the target T1, Adrenergic β2 (H292 cells) (Homo sapiens, UniProt P07550).
T1 construct: endogenous in cells; host or cells: H292 cells
Nature of the assay: Assay for Adrenergic β2 Mediated cAMP Production (concentration response, AlphaScreen cAMP detection). The class given is cell-based. Particulars: for EC50: cAMP production, 60 minutes at room temperature, 300 μM rolipram, read-out: β2 pEC50 (converted); for β2 Intrinsic activity: fraction relative to the maximum activity determined for formoterol. Summed up:
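H292 cells plated overnight, pre-treated with rolipram (300 μM final) 10 min, then compound 60 min at room temperature in HBSS/10 mM HEPES pH7.4/5 mM glucose, 1% DMSO. Lysate cAMP read by AlphaScreen against a cAMP standard curve; 4-parameter fit gives pEC50 and intrinsic activity as fraction of formoterol maximum.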

Assay [2] concerns the target T2, human muscarinic acetylcholine M3 receptor (M3-ACh) (Homo sapiens, UniProt P20309).
T2 construct: expressed in transfected cells; host or cells: CHO-K1 (Chinese Hamster Ovary) cell membranes
As to the kind of experiment: Muscarinic 3 Receptor Binding Assay, % inhibition specific binding at 1 μM. Particulars: 1 μM compound, % inhibition specific [3H]-NMS binding. Summed up: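 Competition binding of 0.1 nM [3H]NMS to membranes from CHO-K1 cells expressing human M3, SPA format, with compound at 1 μM in 20 mM HEPES pH 7.4, 5 mM MgCl2, 1% DMSO. Incubated 16 h at room temperature; non-specific binding defined by 1 μM atropine; value is % inhibition of specific binding.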

The target in assay [3] is T2, human muscarinic acetylcholine M3 receptor (M3-ACh). Nature of the assay: Muscarinic 3 Receptor Binding Assay ([3H]NMS competition, SPA). Particulars: [3H]NMS 0.1 nM, CHO-K1 cell membranes, 16 hours at room temperature; read-out: M3 pIC50 (converted). The method, boiled down:
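Competition SPA binding of 0.1 nM [3H]NMS (quarter Kd) to membranes from CHO-K1 cells expressing human M3, in 20 mM HEPES pH 7.4, 5 mM MgCl2, 1% DMSO. Incubated 16 h at room temperature; non-specific binding with 1 µM atropine. pIC50 from 50% reduction of specific binding.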

Assay [4] deals with T1, Adrenergic β2 (H292 cells). As to the kind of experiment: Adrenergic β2 Mediated cAMP Production, single concentration 1 μM. The class given is cell-based. Particulars: NCI-H292, 1 μM compound, percentage of the maximum response generated by 1E-07M formoterol, read-out: β2 (% effect at 1 μM). The method, boiled down: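 H292 cells were plated overnight, pre-treated with 300 μM rolipram for 10 min, then exposed to compound at 1 μM final (1% DMSO) for 60 min at room temperature. cAMP in the lysates was measured by AlphaScreen against a standard curve and expressed as % of the maximal response to 1E-07M formoterol.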

T2 sequence (P20309 whole entry): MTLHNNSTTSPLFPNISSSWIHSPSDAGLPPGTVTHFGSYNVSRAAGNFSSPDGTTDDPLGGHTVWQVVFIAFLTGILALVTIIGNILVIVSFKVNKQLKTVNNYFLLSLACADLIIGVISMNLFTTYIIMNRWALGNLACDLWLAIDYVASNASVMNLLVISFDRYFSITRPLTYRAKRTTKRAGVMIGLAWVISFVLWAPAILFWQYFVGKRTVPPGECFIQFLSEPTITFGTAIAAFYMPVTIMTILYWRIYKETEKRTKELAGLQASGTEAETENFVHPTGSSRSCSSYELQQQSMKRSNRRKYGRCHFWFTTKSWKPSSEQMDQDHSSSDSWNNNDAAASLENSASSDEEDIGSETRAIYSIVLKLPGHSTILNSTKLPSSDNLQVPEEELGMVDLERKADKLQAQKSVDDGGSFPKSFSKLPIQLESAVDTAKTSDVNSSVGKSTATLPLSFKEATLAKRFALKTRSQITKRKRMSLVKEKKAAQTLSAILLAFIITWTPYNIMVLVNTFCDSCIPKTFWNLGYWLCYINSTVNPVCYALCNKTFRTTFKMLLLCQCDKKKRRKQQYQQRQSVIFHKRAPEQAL
T1 sequence (P07550 whole entry): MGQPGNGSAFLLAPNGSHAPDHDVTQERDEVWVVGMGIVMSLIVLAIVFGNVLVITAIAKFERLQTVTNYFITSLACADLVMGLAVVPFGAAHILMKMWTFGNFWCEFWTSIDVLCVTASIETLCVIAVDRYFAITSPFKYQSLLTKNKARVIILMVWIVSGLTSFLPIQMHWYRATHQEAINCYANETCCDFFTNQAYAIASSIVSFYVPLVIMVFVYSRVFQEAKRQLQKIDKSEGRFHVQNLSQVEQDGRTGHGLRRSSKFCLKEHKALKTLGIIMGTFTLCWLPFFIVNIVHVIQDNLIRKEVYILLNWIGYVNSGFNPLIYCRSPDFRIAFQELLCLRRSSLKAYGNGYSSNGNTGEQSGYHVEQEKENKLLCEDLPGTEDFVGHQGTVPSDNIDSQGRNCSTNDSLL

By inhibition is commonly meant the relative decrease from the control value, in per cent. Turning to `Cc1cc(C(=O)N2CCOC3(CCN(CCCCCCCCCNC[C@H](O)c4ccc(O)c5[nH]c(=O)sc45)CC3)C2)c(C)s1` [Example 202, (R)-7-(2-(9-(4-(2,5-dimethylthiophene-3-carbonyl)-1-oxa-4,9-diazaspiro[5.5]undecan-9-yl)nonylamino)-1-hydroxyethyl)-4-hydroxybenzo[d]thiazol-2(3H)-one], in assay [1], the EC50 is 20 nM and the “β2 Intrinsic activity” value is listed as 0.9. Also, in assay [2], testing at 1 µM gave an inhibition of 99%. Besides, the IC50 in assay [3] was 7.94 nM. For the same compound, the activation at 1 µM in assay [4] was found to be 98%.
Taken in the same sequence, the figures for `O=C(c1ccc2occc2c1)N1CCOC2(CCN(Cc3cc(F)cc(CCNC[C@H](O)c4ccc(O)c5[nH]c(=O)sc45)c3)CC2)C1` [Example 173, (R)-7-(2-(3-((4-(benzofuran-5-carbonyl)-1-oxa-4,9-diazaspiro[5.5]undecan-9-yl)methyl)-5-fluorophenethylamino)-1-hydroxyethyl)-4-hydroxybenzo[d]thiazol-2(3H)-one] were 2.51 nM, 0.8, 99%, 7.94 nM and 93%.
Taken in the same sequence, the figures for `O=C(c1ccc2cccnc2c1)N1CCOC2(CCN(Cc3cc(F)cc(CCNC[C@H](O)c4ccc(O)c5[nH]c(=O)sc45)c3)CC2)C1` [Example 178, (R)-7-(2-(3-fluoro-5-((4-(quinoline-7-carbonyl)-1-oxa-4,9-diazaspiro[5.5]undecan-9-yl)methyl)phenethylamino)-1-hydroxyethyl)-4-hydroxybenzo[d]thiazol-2(3H)-one] were 5.01 nM, 0.8, 89%, 31.6 nM and 94%.
Taken in the same sequence, the figures for `O=C(c1csc(C2CC2)n1)N1CCOC2(CCN(CCOc3ccc(CNC[C@H](O)c4ccc(O)c5[nH]c(=O)sc45)cc3)CC2)C1` [Example 259, (R)-7-(2-(4-(2-(4-(2-cyclopropylthiazole-4-carbonyl)-1-oxa-4,9-diazaspiro[5.5]undecan-9-yl)ethoxy)benzylamino)-1-hydroxyethyl)-4-hydroxy-benzo[d]thiazol-2(3H)-one] were 200 nM, 0.9, 99%, 5.01 nM and 68%.
As for `O=C(c1cccc2cc[nH]c12)N1CCOC2(CCN(Cc3cc(F)cc(CCNC[C@H](O)c4ccc(O)c5[nH]c(=O)sc45)c3)CC2)C1` [Example 141, (R)-7-(2-(3-((4-(1H-indole-7-carbonyl)-1-oxa-4,9-diazaspiro[5.5]undecan-9-yl)methyl)-5-fluorophenethylamino)-1-hydroxyethyl)-4-hydroxybenzo[d]thiazol-2(3H)-one], in assay [1], the EC50 was 6.31 nM and the “β2 Intrinsic activity” value is on record as 0.9. Further, the inhibition at 1 µM in assay [2] turned out to be 91%. The IC50 in assay [3] was 25.1 nM. The activation at 1 µM in assay [4] was 105%.
The corresponding values for `O=C(c1csc(C(F)(F)F)n1)N1CCOC2(CCN(CCCCCCCCCNC[C@H](O)c3ccc(O)c4[nH]c(=O)sc34)CC2)C1` [Example 217, (R)-4-hydroxy-7-(1-hydroxy-2-(9-(4-(2-(trifluoromethyl)thiazole-4-carbonyl)-1-oxa-4,9-diazaspiro[5.5]undecan-9-yl)nonylamino)ethyl)benzo[d]thiazol-2(3H)-one] are 39.8 nM, 0.9, 100%, 0.631 nM and 103%.
The corresponding values for `O=C(c1ccc(Cl)s1)N1CCOC2(CCN(CCCCCCCCCNC[C@H](O)c3ccc(O)c4[nH]c(=O)sc34)CC2)C1` [Example 190, (R)-7-(2-(9-(4-(5-chlorothiophene-2-carbonyl)-1-oxa-4,9-diazaspiro[5.5]undecan-9-yl)nonylamino)-1-hydroxyethyl)-4-hydroxybenzo[d]thiazol-2(3H)-one] are 12.6 nM, 0.9, 99%, 2 nM and 77%.

(Values after patent US8148373B2, “Compounds” (AstraZeneca AB, priority 2008, dated 2012).)
